Laboratory results from patent US4180655A, “Nitrosourea derivatives” (Suami; Tetsuo, priority 1974, dated 1979).
Where two headings read alike, the source gives them in different places.

Tested on: Leukemia L1210 cells
Experiment: Chemotherapeutic effect of nitrosourea derivatives on leukemia L1210 in mice
Assay type: in vivo, mice (BDF1/BDF)
From the text: Chemotherapeutic effect of a variety of the nitrosourea derivatives of the formula I according to this invention on leukemia L1210 in mice were investigated by the following method and materials.
A--BDF1 mice (about 6 week-aged; body weight: 22±1 g); each experimental group was composed of 2 male mice.
B--BDF1 mice (about 7 week-aged; body weight: 21±2 g); each experimental group was composed of 3 male mice.
C--BDF mice (about 7 week-aged; body weight: 22±2 g); each experimental group was composed of 2 male mice.
D--BDF mice (about 6 week-aged; body weight: 21±2 g); each experimental group was composed of 3 male mice.
E--BDF1 mice (about six week-aged; body weight 20±1 g); each experimental group was composed of 3 female mice.
F--BDF1 mice (about six week-aged; body weight 21±1 g); each experimental group was composed of 3 male mice.
A--Leukemia L1210 cells (2.1×10^6 cells/ 0.05 ml/mouse) were intraperitoneally inoculated.
B--Leukemia L1210 cells (1.9×10^6 cells/0.05 ml/mouse) were intraperitoneally inoculated.
C--Leukemia L1210 cells (1.2×10^6 cells/0.05 ml/mouse) were intraperitoneally inoculated.
A--The test compound was dissolved in a physiological saline solution and administered intraperitoneally at a volume of 0.1 ml/mouse. The administration was made at once/day, from 24 hours after i.p. inoculation of L1210 cells, for 3 days. The effect of test compound was assessed by mean survival days of mice, percent increase in life-span, anatomical findings involving the volume of ascites.
B--The same as that used in A except that the drug administration was continued for 5 days.
C--The same as that used in A except that the test compound was suspended in 0.5% CMC solution and that the drug administration was continued for 5 days.
D--The same as that used in A except that the test compound was dissolved in distilled water for injection purposes.
The percentage increase in life-span (ILS) was calculated as follows:
Percentage increase in life-span (ILS)=T-C/C×100
T: The mean survival days of the treated animals.
C: The mean survival days of the untreated control.

[1] = 0.5 mg/kg i.p. once/day for 3 days (procedure A, saline)
[2] = 1 mg/kg i.p. once/day for 3 days (procedure A, saline)
[3] = 2 mg/kg i.p. once/day for 3 days (procedure A, saline)
[4] = 4 mg/kg i.p. once/day for 3 days (procedure A, saline)
[5] = 8 mg/kg i.p. once/day for 3 days (procedure A, saline)
[6] = Mus musculus, L1210, ip, 72 h, 1 mg/kg i.p. once/day for 3 days (procedure A, saline), read-out: Percentage increase in life-span (ILS)
[7] = Mus musculus, L1210, ip, 72 h, 2 mg/kg i.p. once/day for 3 days (procedure A, saline), read-out: Percentage increase in life-span (ILS)
[8] = Mus musculus, L1210, ip, 72 h, 4 mg/kg i.p. once/day for 3 days (procedure A, saline), read-out: Percentage increase in life-span (ILS)
[9] = Mus musculus, L1210, ip, 72 h, 8 mg/kg i.p. once/day for 3 days (procedure A, saline), read-out: Percentage increase in life-span (ILS)
[10] = 16 mg/kg i.p. once/day for 3 days (procedure A, saline)
[11] = Mus musculus, L1210, ip, 72 h, 16 mg/kg i.p. once/day for 3 days (procedure A, saline), read-out: Percentage increase in life-span (ILS)
[12] = 6 mg/kg i.p. once/day for 3 days (procedure A, saline)
[13] = 10 mg/kg i.p. once/day for 3 days (procedure A, saline)
[14] = 20 mg/kg i.p. once/day for 3 days (procedure A, saline)
[15] = 30 mg/kg i.p. once/day for 3 days (procedure A, saline)
[16] = Mus musculus, L1210, ip, 72 h, 10 mg/kg i.p. once/day for 3 days (procedure A, saline), read-out: Percentage increase in life-span (ILS)
[17] = 200 mg/kg i.p. once/day for 5 days (procedure B, saline)
[18] = 300 mg/kg i.p. once/day for 5 days (procedure B, saline)
[19] = Mus musculus, L1210, ip, 120 h, read-out: Percentage increase in life-span (ILS)
[20] = 2.5 mg/kg i.p. once/day for 3 days (procedure A, saline)
[21] = 5 mg/kg i.p. once/day for 3 days (procedure A, saline)

Row | Compound | Survival days, Treated (mean) [2] | Volume of ascites, Treated [2] | Survival days, Treated (mean) [3] | Volume of ascites, Treated [3] | Survival days, Treated (mean) [4] | Volume of ascites, Treated [4] | Survival days, Treated (mean) [5] | Volume of ascites, Treated [5] | ILS at 1 mg/kg [6] | ILS at 2 mg/kg [7] | ILS at 4 mg/kg [8] | ILS at 8 mg/kg [9] | Survival days, Treated (mean) [10] | Volume of ascites, Treated [10] | ILS at 16 mg/kg [11] | Survival days, Treated (mean) [13] | Volume of ascites, Treated [13] | ILS at 10 mg/kg [16] | other results
1 | O=NN(CCCl)C(=O)N[C@@H]1O[C@H](CO)[C@@H](O)[C@H](O)[C@@H]1O [Compound 2, 1-(2-chloroethyl)-3-(β-D-mannopyranosyl)-1-nitrosourea] | 13.7 days | 2.3 | 14.7 days | 1.2 | 15.0 days | 1.2 | 18.3 days | 0 | 51.9% | 63% | 66.7% | 103% | – | – | – | – | – | – | Survival days, Treated (mean) [1]: 13.0 days; Volume of ascites, Treated [1]: 3.0; ILS at 0.5 mg/kg (Mus musculus, L1210, ip, 72 h, 0.5 mg/kg i.p. once/day for 3 days (procedure A, saline), read-out: Percentage increase in life-span (ILS)): 44.4%
2 | O=NN(CCCl)C(=O)N[C@@H]1OC[C@@H](O)[C@H](O)[C@H]1O [Compound 3, 1-(2-chloroethyl)-1-nitroso-3-(β-D-xylopyranosyl)urea] | 17.0 days | 0 | > 24.0 days | 0 | > 60.0 days | 0 | > 60.0 days | 0 | 54.5% | > 118% | > 446% | > 446% | 9.0 days | 0 | -18.2% | – | – | – | –
3 | O=NN(CCCl)C(=O)N[C@H]1[C@H](O)CCC[C@@H]1O [Compound 4, 1-(2-chloroethyl)-3-(1,3/2N-dihydroxycyclohexyl)-1-nitrosourea] | – | – | 22.0 days | 0.8 | > 60.0 days | 0 | > 59.3 days | 0 | – | 114% | > 482% | > 476% | 13.0 days | 0 | 26.2% | – | – | – | –
4 | O=NN(CCCl)C(=O)N[C@H]1[C@H](O)[C@@H](O)[C@H](O)[C@@H](O)[C@@H]1O [Compound 5, 1-(2-chloroethyl)-1-nitroso-3-(1N,3,5/2,4,6-pentahydroxycyclohexyl)urea] | 12.0 days | 4.5 | 12.5 days | 4.0 | 13.0 days | 2.8 | 16.0 days | 2.5 | 23.7% | 28.9% | 34% | 64.9% | – | – | – | 15.5 days | 0 | 59.8% | Survival days, Treated (mean) [12]: 14.0 days; Volume of ascites, Treated [12]: 2.0; Survival days, Treated (mean) [14]: > 61.1 days; Volume of ascites, Treated [14]: 0; Survival days, Treated (mean) [15]: 11.6 days; Volume of ascites, Treated [15]: 0; ILS at 6 mg/kg (Mus musculus, L1210, ip, 72 h, 6 mg/kg i.p. once/day for 3 days (procedure A, saline), read-out: Percentage increase in life-span (ILS)): 44.3%; ILS at 20 mg/kg (Mus musculus, L1210, ip, 72 h, 20 mg/kg i.p. once/day for 3 days (procedure A, saline), read-out: Percentage increase in life-span (ILS)): > 530%; ILS at 30 mg/kg (Mus musculus, L1210, ip, 72 h, 30 mg/kg i.p. once/day for 3 days (procedure A, saline), read-out: Percentage increase in life-span (ILS)): 19.6%
5 | CO[C@@H]1O[C@H](C)[C@@H](O)[C@H](O)[C@H]1NC(=O)N(C)N=O [Compound 6, Methyl 2,6-dideoxy-2-(N'-methyl-N-nitrosoureido)-βD-glucopyranoside] | – | – | – | – | – | – | – | – | – | – | – | – | – | – | – | – | – | – | Survival days, Treated (mean) [17]: 15.1 days; Volume of ascites, Treated [17]: 2.0; Survival days, Treated (mean) [18]: 13.0 days; Volume of ascites, Treated [18]: 0.3; ILS at 200 mg/kg [19]: 77.6%; ILS at 300 mg/kg [19]: 52.9%
6 | O=NN(CCCl)C(=O)N[C@@H]1O[C@H](CO)[C@H](O)[C@H](O)[C@H]1O [Compound 7, 1-(2-chloroethyl)-3-(β-D-galactopyranosyl)-1-nitrosourea] | 18.5 days | 4.6 | 14.7 days | 0.8 | > 47.0 days | 0 | > 47.0 days | 0 | 98.9% | 58.1% | > 405% | > 405% | – | – | – | 18.7 days | 0 | 101% | –
7 | O=NN(CCCl)C(=O)N[C@@H]1O[C@H](CO)[C@@H](O[C@@H]2O[C@H](CO)[C@H](O)[C@H](O)[C@H]2O)[C@H](O)[C@H]1O [Compound 8, 1-(2-chloroethyl)-3-(β-D-lactosyl)-1-nitrosourea] | – | – | – | – | – | – | – | – | – | – | – | – | – | – | – | > 47.0 days | 0 | > 384% | Survival days, Treated (mean) [20]: 12.5 days; Volume of ascites, Treated [20]: 3.3; Survival days, Treated (mean) [21]: 14.3 days; Volume of ascites, Treated [21]: 1.0; ILS at 2.5 mg/kg (Mus musculus, L1210, ip, 72 h, 2.5 mg/kg i.p. once/day for 3 days (procedure A, saline), read-out: Percentage increase in life-span (ILS)): 28.9%; ILS at 5 mg/kg (Mus musculus, L1210, ip, 72 h, 5 mg/kg i.p. once/day for 3 days (procedure A, saline), read-out: Percentage increase in life-span (ILS)): 47.4%
8 | O=NN(CCCl)C(=O)N[C@@H](CO)[C@@H](O)[C@H](O)[C@H](O)CO [Compound 9, N-carbamoyl-N'-(2-chloroethyl)-N'-nitroso-D-glucosaminol] | – | – | – | – | – | – | 18.0 days | 0 | – | – | – | 68.2% | > 53.7 days | 0 | > 402% | – | – | – | –
9 | COc1cccc2c1C(=O)c1c(O)c3c(c(O)c1C2=O)C[C@@](O)(C(C)=O)C[C@@H]3O[C@H]1C[C@H](N)[C@H](O)[C@H](C)O1 [Compound 10, Daunomycin, reference compound] | – | – | – | – | – | – | – | – | – | – | – | – | – | – | – | – | – | – | Survival days, Treated (mean) (0.25 mg/kg i.p. once/day for 5 days (procedure C, 0.5% CMC)): 10.2 days; Survival days, Treated (mean) (0.5 mg/kg i.p. once/day for 5 days (procedure C, 0.5% CMC)): 12.8 days; Survival days, Treated (mean) (1 mg/kg i.p. once/day for 5 days (procedure C, 0.5% CMC)): 12.6 days; Survival days, Treated (mean) (2 mg/kg i.p. once/day for 5 days (procedure C, 0.5% CMC)): 13.6 days; ILS at 0.25 mg/kg (Mus musculus, L1210, ip, 120 h, 0.25 mg/kg i.p. once/day for 5 days (procedure C, 0.5% CMC), read-out: Percentage increase in life-span (ILS)): 20%; ILS at 0.5 mg/kg (Mus musculus, L1210, ip, 120 h, 0.5 mg/kg i.p. once/day for 5 days (procedure C, 0.5% CMC), read-out: Percentage increase in life-span (ILS)): 50.6%; ILS at 1 mg/kg (Mus musculus, L1210, ip, 120 h, 1 mg/kg i.p. once/day for 5 days (procedure C, 0.5% CMC), read-out: Percentage increase in life-span (ILS)): 48.3%; ILS at 2 mg/kg (Mus musculus, L1210, ip, 120 h, 2 mg/kg i.p. once/day for 5 days (procedure C, 0.5% CMC), read-out: Percentage increase in life-span (ILS)): 60%
